The values that follow come from patent publication US20060116390A1, “Hepatitis c virus inhibitors” (priority 2003, published 2006).

The IC50 is the concentration that gives 50% inhibition.

This assay has as its system HCV proteins in Rep5.1 cells (replicon cell line). Put plainly: Inhibitory activity of HCV: cell-based ELISA in replicon cell line Rep5.1 (decrease of HCV proteins). The arrangement: species or system hepatitis C virus. The note with it: Rep5.1 cells, 72 hours with drug. The protocol: In order to, screen and evaluate the anti-HCV therapeutic agents in cell level, the following experiments are carried out using a replicon cell line, Rep5.1 [Lohmann, et al., Replication of subgenomic hepatitis C virus RNAs in a hepatoma cell line. Science 285:110-113 (1999)].
Rep5.1 cells, the replicon cell line, are cultured in DMEM-10 containing 500 μg/ml of G418. The Rep5.1 cells in log phase are suspended by trypsin treatment, and 5000 cells are distributed to each well of a 96-well plate. After 4 hours when the cells are attached to the plate, the serially diluted drug is added to each well. After 48 hours, a part of the treated cells are observed by microscope, and MTT assay is carried out to evaluate the drug toxicity. The cytotoxicity is estimated in percentage based on the control containing no drug. After 72 hours, the remaining cells are fixed by methanol/acetone (50/50, v/v), and the decrease of HCV proteins is measured by using HCV antibody. The extent of decrease is estimated in percentage based on the control containing no drug, and the concentration of drug at which 50% of proteins is decreased is determined to be IC50. The compounds showing activity via this procedure are validated by Western blotting. In order to find out whether the decrease of HCV protein is related to the decrease of replicon RNA, Rep5.1 cell is treated with some selected drugs for 72 hours, RNA is purified, dot blotted, and hybridized with isotope labelled nucleic acid to determine the amounts of actin mRNA and replicon RNA, and finally the amount of RNA is compared.
Plasma samples from 300 persons positive to the hepatitis C antibody test were screened by antibody diagnosis kit produced by LG life Sciences Ltd. (LG HCD3.0 TMB) to select 40 plasma samples having high titer. Replicon cell line and Huh-7 cell line each were cultured in a 96-well cell culture plate, fixed by methanol/acetone (1:1) mixture, and blocked by 3% skimmed milk. The 40 plasma sanples selected above were 100-fold diluted and aided thereto, and the bound antibodies were probed by anti-Human goat antibody (Sigma) to which Horse Radish Peroxidase is attached. As a result, 12 plasma samples having low specificity to Huh-7 cell line, but high specificity to replicon cell line were obtained. These plasma samples were used in the following cell-based ELISA.
Rep5.1 cells were cultured in DMEM-10 containing 500 μg/ml of G418. The Rep5.1 cells in log phase were suspended by trypsin treatment, and 5000 cells were distributed to each well of a 96-well pate. After 4 hours for which the cells were attached to the plate, the serially diluted drug was added to each well. After 72 hours, the cells were fixed by methanol/acetone (50/50, v/v), and the decrease of HCV proteins was measured by using HCV antibody obtained as above. The extent of decrease was estimated in percentage based on the control containing no drug, and the concentration of drug at which 50% of proteins was decreased was determined to be IC50.
(In an ELISA, binding on a coated surface is turned into a signal by an enzyme label.)

Where [1] appears, read: Hepatitis C virus, 72 h, concentration at which 50% of HCV proteins was decreased, Table 2, read-out: IC50.
The mark [2] stands for this setting: Hepatitis C virus, 72 h, decrease of HCV proteins measured by HCV antibody, Table 1, read-out: Level (IC50 values classified).

Read-outs that look alike come from different tables or passages of the source. Bounds are passed on as bounds.

Consider `CC1=C(C(=O)OCCc2ccc(F)c(F)c2)C(CF)NC(=S)N1` (stereo not drawn) [90′, 4-fluoromethyl-6-methyl-2-thioxo-1,2,3,4-tetrahydro-pyrimidine-5-carboxylic acid 2-(3,4-difluoro-phenyl)-ethyl ester], for which the half-maximal inhibitory concentration (IC50) is, setting by setting: under setting [1], 0.8 µM; under setting [2], less than 1 µM. The matching figures for `CC1=C(C(=O)OC(C)Cc2ccsc2Br)C(CO)NC(=S)N1` (stereo not drawn) [7″, 4-hydroxymethyl-6-methyl-2-thioxo-1,2,3,4-tetrahydro-pyrimidine-5-carboxylic acid 2-(2-bromo-thiophen-3-yl)-1-methyl-ethyl ester]: 7 µM and 1 to 10 µM.

`CC1=C(C(=O)OCCc2ccc(N(C)C)cc2)C(CO)NC(=S)N1` (stereo not drawn) [12″, 4-hydroxymethyl-6-methyl-2-thioxo-1,2,3,4-tetrahydro-pyrimidine-5-carboxylic acid 2-(4-dimethylamino-phenyl)-ethyl ester]: the IC50 runs as follows: under setting [1], 31 µM; under setting [2], greater than 20 µM.

`CCOc1ccccc1CCOC(=O)C1=C(C)NC(=S)NC1CF` (stereo not drawn) [Compound 274, 4-fluoromethyl-6-methyl-2-thioxo-1,2,3,4-tetrahydro-pyrimidine-5-carboxylic acid 2-(2-ethoxy-phenyl)-ethyl ester]: the 50% inhibitory concentration (IC50) is, setting by setting: under setting [1], greater than 100 µM; under setting [2], greater than 20 µM.

As to `CC1=C(C(=O)OC(C)CCc2cccs2)C(CF)NC(=S)N1` (stereo not drawn) [74′, 4-fluoromethyl-6-methyl-2-thioxo-1,2,3,4-tetrahydro-pyrimidine-5-carboxylic acid 1-methyl-3-thiophen-2-yl-propyl ester], the IC50 was 7 µM under setting [1] and 1 to 10 µM under setting [2]. As for `CC1=C(C(=O)OCCc2ccccc2Cl)CNC(=S)N1` [Compound 118, 6-methyl-2-thioxo-1,2,3,4-tetrahydro-pyrimidine-5-carboxylic acid 2-(2-chloro-phenyl)-ethyl ester], the half-inhibitory concentration (IC50) by setting is: under setting [1], less than 0.4 µM; under setting [2], less than 1 µM. For the compound `CC1=C(C(=O)OCCc2c[nH]c3ccccc23)CNC(=S)N1` [Compound 102, 6-methyl-2-thioxo-1,2,3,4-tetrahydro-pyrimidine-5-carboxylic acid 2-(1H-indol-3-yl)-ethyl ester], the IC50 under setting [1] was 2 µM and the half-maximal inhibitory concentration (IC50) under setting [2] was 1 to 10 µM.

Take `CC1=C(C(=O)OCCc2cccc(Cl)c2)C(COC(=O)OCC2COC(=O)O2)NC(=S)N1` (stereo not drawn) [88″, 6-methyl-4-(2-oxo-[1,3]dioxolan-4-ylmethoxycarbonyloxymethyl)-2-thioxo-1,2,3,4-tetrahydro-pyrimidine-5-carboxylic acid 2-(3-chloro-phenyl)-ethyl ester]: the half-inhibitory concentration (IC50) runs as follows: under setting [1], 0.9 µM; under setting [2], less than 1 µM.

Turning to `COc1ccc(CCOC(=O)C2=C(C)NC(=S)NC2CO)cc1C` (stereo not drawn) [69″, 4-hydroxymethyl-6-methyl-2-thioxo-1,2,3,4-tetrahydro-pyrimidine-5-carboxylic acid 2-(4-methoxy-3-methyl-phenyl)-ethyl ester], the IC50 is 0.8 µM under setting [1] and less than 1 µM under setting [2]. Turning to `CC1=C(C(=O)OCc2cccs2)CNC(=S)N1` [Compound 153, 6-methyl-2-thioxo-1,2,3,4-tetrahydro-pyrimidine-5-carboxylic acid thiophen-2-ylmethyl ester], the IC50 reads like this: under setting [1], 2.7 µM; under setting [2], 1 to 10 µM.

As for `CC1=C(C(=O)OCc2cccc(C)c2C)CNC(=S)N1` [Compound 156, 6-methyl-2-thioxo-1,2,3,4-tetrahydro-pyrimidine-5-carboxylic acid 2,3-dimethyl-benzyl ester], the IC50 was 0.5 µM under setting [1] and less than 1 µM under setting [2].

Regarding `CC1=C(C(=O)OCCCc2sccc2C)C(CO)NC(=S)N1` (stereo not drawn) [17″, 4-hydroxymethyl-6-methyl-2-thioxo-1,2,3,4-tetrahydro-pyrimidine-5-carboxylic acid 3-(3-methyl-thiophen-2-yl)-propyl ester], the half-inhibitory concentration (IC50) reads like this: under setting [1], 9 µM; under setting [2], 1 to 10 µM. As to `CC1=C(C(=O)OCCc2ccc(N3CCCCC3)c([N+](=O)[O-])c2)C(CO)NC(=S)N1` (stereo not drawn) [100″, 4-Hydroxymethyl-6-methyl-2-thioxo-1,2,3,4-tetrahydro-pyrimidine-5-carboxylic acid 2-(3-nitro-4-piperidin-1-yl-phenyl)-ethyl ester], the IC50 was 0.9 µM under setting [1] and less than 1 µM under setting [2]. Take `COCCN(C)c1ccc(CCCOC(=O)C2=C(C)NC(=S)NC2CF)cc1` (stereo not drawn) [59′, 4-fluoromethyl-6-methyl-2-thioxo-1,2,3,4-tetrahydro-pyrimidine-5-carboxylic acid 3-{4-[(2-methoxy-ethyl)-methyl-amino]-phenyl}-propyl ester]: the IC50 is, setting by setting: under setting [1], 34 µM; under setting [2], greater than 20 µM.

Regarding `CC1=C(C(=O)OCCc2ccc(N3CC=CC3)c([N+](=O)[O-])c2)C(CO)NC(=S)N1` (stereo not drawn) [101″, 4-Hydroxymethyl-6-methyl-2-thioxo-1,2,3,4-tetrahydro-pyrimidine-5-carboxylic acid 2-[4-(2,5-dihydro-pyrrol-1-yl)-3-nitro-phenyl]-ethyl ester], the IC50 is 1.2 µM under setting [1] and 1 to 10 µM under setting [2]. For the compound `CC1=C(C(=O)OCC2CC2)CNC(=S)N1` [Compound 46, 6-methyl-2-thioxo-1,2,3,4-tetrahydro-pyrimidine-5-carboxylic acid cyclopropylmethyl ester], the half-maximal inhibitory concentration (IC50) reads like this: under setting [1], 30 µM; under setting [2], 10 to 20 µM. In the case of `COc1ccc(Cl)cc1COC(=O)C1=C(C)NC(=S)NC1CF` (stereo not drawn) [81′, 4-fluoromethyl-6-methyl-2-thioxo-1,2,3,4-tetrahydro-pyrimidine-5-carboxylic acid 5-chloro-2-methoxy-benzyl ester], where the note is “concentration at which 50% of HCV proteins was decreased, Table 2, read-out: IC50”, the IC50 is 2.4 µM. In the case of `CC1=C(C(=O)OCc2ccccc2C(F)(F)F)CNC(=S)N1` [Compound 100, 6-methyl-2-thioxo-1,2,3,4-tetrahydro-pyrimidine-5-carboxylic acid 2-trifluoromethyl-benzyl ester], the half-inhibitory concentration (IC50) was less than 0.4 µM under setting [1] and less than 1 µM under setting [2]. Consider `CC1=C(C(=O)OCCc2scnc2C)CNC(=S)N1` [Compound 24, 6-methyl-2-thioxo-1,2,3,4-tetrahydro-pyrimidine-5-carboxylic acid 2-(4-methyl-thiazol-5-yl)-ethyl ester], for which the IC50 is 70 µM under setting [1] and greater than 20 µM under setting [2]. Take `CC1=C(C(=O)OCCc2ccsc2)C(COCc2ccccc2)NC(=S)N1` (stereo not drawn) [Compound 272, 4-benzyloxymethyl-6-methyl-2-thioxo-1,2,3,4-tetrahydro-pyrimidine-5-carboxylic acid 2-thiophen-3-yl-ethyl ester]: the half-maximal inhibitory concentration (IC50) by setting is: under setting [1], 34 µM; under setting [2], greater than 20 µM. As for `CC1=C(C(=O)OCCCc2ccc(OCc3ccccc3)cc2)CNC(=S)N1` [Compound 108, 6-methyl-2-thioxo-1,2,3,4-tetrahydro-pyrimidine-5-carboxylic acid 3-(4-benzyloxy-phenyl)-propyl ester], the 50% inhibitory concentration (IC50) is, setting by setting: under setting [1], less than 0.4 µM; under setting [2], less than 1 µM. For `CC1=C(C(=O)OCc2ccc([S+](C)[O-])cc2)CNC(=S)N1` (stereo not drawn) [Compound 52, 6-methyl-2-thioxo-1,2,3,4-tetrahydro-pyrimidine-5-carboxylic acid 4-methylsulfinyl-benzyl ester], in that order: 0.7 µM and less than 1 µM.

For the compound `CSc1ccccc1COC(=O)C1=C(C)NC(=S)NC1` [Compound 110, 6-methyl-2-thioxo-1,2,3,4-tetrahydro-pyrimidine-5-carboxylic acid 2-methylsulfanyl-benzyl ester], the IC50 under setting [1] was 17 µM and the 50% inhibitory concentration (IC50) under setting [2] was in the range of 1 to 10 µM.
